{"source": "patent US9963476B2", "about": "“Antioxidant compound having anti atherosclerotic effect and preparation thereof” (Council of Scientific and Industrial Research, priority 2015, dated 2018)", "key": {"HAEC": {"test_system": "HAEC", "test": "Cellular uptake: Mito-Esc/esculetin quantified by ESI-MS in cytosolic and mitochondrial fractions of HAEC", "format": "in vitro ADME, human", "description": "After the treatment, cells were washed thrice with PBS. Similarly Mito-Esculetin+ Ang-II treatment group, Ang-II alone treatment group and control Apo E^−/− mice aortic tissue was taken. The isolation of mitochondrial and cytosolic extracts was carried out using a commercially available Proteo Extract Cytosol/Mitochondria Fractionation Kit (Cat. no. QIA88-Merck, USA) according to manufacturer's instructions. Initially, mitochondrial and cytosolic fractions were separated using a commercially available kit as mentioned elsewhere. Mito-Esc was quantified in the mitochondrial and cytosolic fractions obtained from HAEC and aorta of ApoE^−/− mice of different treatment groups as mentioned in Animal Experiments section (Table-1). Electrospray ionization (ESI)-MS. ESI-MS (positive mode) measurements were performed using a quadrupole time-of-flight mass spectrometer (QSTAR XL, Applied Biosystems/MDS Sciex, Foster City, Calif., USA). The data acquisition was under the control of Analyst QS software (Applied Biosystems). For the CID (collision-induced dissociation) experiments, the precursor ions were selected using the quadrupole analyzer and the product ions were analyzed using the TOF analyzer."}, "[1]": {"test_system": "Ang-II-induced H2O2 production in HAEC", "test": "H2O2 levels by Amplex red assay", "format": "cell-based, human", "details": "Ang-II 500 nM + Mito-Esc 2.5 μM, 16 h", "description": "Amplex red reagent was used to detect the released H2O2 from cells. […] Immediately, formation of resorufin fluorescence was measured in multi mode reader (PerkinElmer) with λex=540 and λem=585.\n(§1) Ang-II is known to increase oxidative stress through increased production of H2O2 (Doughan A K, Harrison D G, Dikalov S I. Circ Res (2008) 102:488-96). […] Further, we assessed the effect of Mito-Esc on H2O2-induced mitochondrial membrane depolarization. HAEC were treated with H2O2 (500 μM) in the presence or absence of Mito-Esc for a period of 16 h and mitochondrial membrane potential was measured using a mitochondrial membrane sensor kit. Mito-Sensor is a cationic dye that fluoresces differently in apoptotic and nonapoptotic cells. […] In apoptotic cells, membrane potentials are altered and the Mito-Sensor dye cannot accumulate in mitochondria and, thus, remain as monomers leading to a green fluorescence."}, "[2]": {"test_system": "caspase-3 and -8 activation in HAEC", "test": "Caspase-3 and -8 activity in HAEC lysates", "format": "cell-based, human", "details": "2.5 μM pretreatment", "method": "Human aortic endothelial cells (HAECs) were obtained from ATCC (Manassas, Va.) and maintained (37° C. 5% CO2) in basal medium supplemented with 10% FBS, VEGF (5 ng/mL), hEGF (5 ng/mL), hFGF (5 ng/mL), IGF-1 (15 ng/mL), ascorbic acid (50 μg/mL), hydrocortisone (1 μg/mL), amphotericin (15 ng/mL), gentamicin (30 ng/mL) and heparin (0.75 Units/mL). Cells used in this study were between passages 4 and 9.\nHAEC were washed twice with cold DPBS and lysed in buffer containing 10-mM Tris-HCl, 10-mM NaH2PO4/Na2HPO4 (pH, 7.5). 130-mM NaCl. 1% Triton, and 10-mM sodium pyrophosphate. Cell lysates were incubated with either with caspase-3 fluorogenic substrate (N-acetyl-Asp-Glu-Val-Asp-7-amido-4-methylcoumarin) or caspase-8 fluorogenic substrate (N-acetyl-Ileu-Glu-Thr-Asp-7 amido-4-methylcoumarin) at 37° C. for 1 h. The 7-amido-4-methyl-coumarin liberated was measured in a multi mode reader (PerkinElmer) with λex=380 nm and λem=460 nm."}, "[3]": {"test_system": "AMPK1-α phosphorylation (Thr-172)", "test": "Western blot of AMPK phosphorylation in HAEC", "format": "cell-based, human", "description": "Previously, it was shown that AMPK co-immunoprecipitates with cardiac endothelial NO synthase (eNOS) and phosphorylates Ser-1177 in the presence of Ca^2+-calmodulin (CaM) to activate eNOS both in vitro and during ischaemia in rat hearts (FEBS Lett. (1999) 443:285-289). To test whether Mito-Esc mediates increased phosphorylation of eNOS through AMPK activation, initially, HAEC were treated various concentrations of Mito-Esc (1-5 μM) for 8 h and AMPK1-α phosphorylation (Thr-172) levels were measured. […] Next, we investigated the phospho-AMPK1-α levels in HAEC treated with H2O2 in the presence or absence of either Mito-Esc or native esculetin."}, "[4]": {"test_system": "Ang-II-induced atherosclerosis in ApoE−/− mice", "test": "Ang-II-induced aortic aneurysm and atheromatous plaque formation in ApoE−/− mice", "method": "(§2) Experiments were conducted in 2-month-old male apolipoprotein E knockout (ApoE^−/−) mice according to the guidelines formulated for care and use of animals in scientific research (ICMR, New Delhi, India) at a CPCSEA (Committee for the Purpose of Control and Supervision of Experiments on Animals) registered animal facility. […] Animals were randomly divided into 3 groups each n=7:1) control 2) Ang-II treatment and 3) Mito-Esculetin+Ang-II treatment. Ang-II and Mito-Esculetin treatment groups received Ang-II (sigma) at a dose of 1.44 mg/kg/day for 6 weeks through sub-cutaneous route where as control group received normal saline. Mito-Esculetin treatment group received the compound at a dose of 0.5 mg/kg/day in normal drinking water. All animals were fed on normal chow throughout the study. After 6 weeks, all groups of animals were sacrificed as per standard protocols for euthanasia.\n(§3) We further analyzed the vascular remodelling employing histological stains in tissue sections of thoracic aortas. […] In tune with this, we have also measured Mac-3 levels by flow cytometry."}, "SIRT-3, PGC-1α, TFAM": {"test_system": "SIRT-3, PGC-1α, TFAM", "details": "HAEC, 8 h", "method": "At the end of the treatments, HAECs were washed with ice-cold DPBS and resuspended in RIPA buffer (20 mM Tris-HCl, pH 7.4/2.5 mM EDTA/1% Triton X-100/1% sodium deoxycholate/1% SDS/100 mM NaCl/100 mM sodium fluoride) containing protease inhibitor cocktail and phosphatase inhibitor cocktail-2 and -3. The lysate was centrifuged for 15 min at 12000×g. […] Protein bands were detected by using HRP substrate (Millipore-luminata). All the antibodies used for this study were from CST.\nNext we investigated the ability of Mito-Esc to modulate the mitochondrial biogenetic regulators namely, silent mating type information regulation 2 homolog (SIRT)-3, Peroxisome proliferator-activated receptor-gamma coactivator (PGC)-1α and mitochondrial transcription factor A (TFAM)."}, "[5]": {"test_system": "TNF-α, IFN-γ, MCP-1, Mac-3", "test": "Serum proinflammatory cytokines and Mac-3 levels in ApoE−/− mice", "method": "as §2, §3"}, "HAEC aging / senescence": {"test_system": "HAEC aging / senescence", "test": "Senescence-associated β-galactosidase staining", "format": "cell-based, human", "description": "Low and high passage number (which reflects young and aged) endothelial cells (HAEC) cells were treated with various concentrations of H2O2 (50-500 μM)) for 8 h. Cells were washed in PBS, fixed for […] (room temperature) in 2% formaldehyde/0.2% glutaraldehyde, washed, and incubated at 37° C. with fresh senescence associated β-Gal (SA-,β-Gal) stain solution: 1 mg of 5-bromo-4-chloro-3-indolyl β-D-galactoside (X-Gal) per ml (stock=20 mg of dimethylformamide per ml)/40 mM citric acid/sodium phosphate, pH 6.0; 5 mM potassium ferrocyanide/5 mM potassium ferricyanide/150 mM NaCl/2 mM MgCl2. Staining was visualized after 24 h using a phase contrast microscope.\nTo study if Mti-Esc influences vascular aging; we have studied its effect on human aortic endothelial cell (HAEC) aging. For this, we used HAEC of different passages (representing different age) from P6 (young age) to P16 (old age). Also we have grown HAEC with Mito-Esc (2.5 μM) for six generations (six passages) to understand its chronic effects in regulating endothelial cell aging phenomenon."}, "[6]": {"test_system": "mitochondrial membrane potential in HAEC", "test": "Mitochondrial transmembrane potential (JC-1 / Mito-Sensor dye)", "format": "cell-based, human", "details": "H2O2 500 μM, 16 h", "description": "Mitochondrial potential was assessed by using the fluorescent potentiometric JC-1 dye. In healthy cells, JC-1 forms J-aggregates that display a strong red fluorescence with excitation of 560 nm and emission wavelength at 595 nm. In apoptotic or unhealthy cells, JC-1 exists as monomers that display a strong green fluorescence with excitation and emission at 485 nm and 535 nm, respectively. At the end of the treatments, cells were washed with Dulbeccos phosphate buffer solution (DPBS) and incubated with JC-1 dye ([…]) for 20 min. Cells were again washed twice with DPBS and maintained in culture medium. Fluorescence was monitored by using Olympus fluorescence microscope with Rhodamine and Fluorescein isothiocyanate (FITC) filters.\nas §1, with “kit.” for “kit. Mito-Sensor is a cationic dye that fluoresces differently in apoptotic and nonapoptotic cells.”"}, "[7]": {"test_system": "Ang-II-induced atherosclerosis in ApoE−/− mice", "test": "Serum lipid profile of Ang-II treated ApoE−/− mice", "format": "in vivo", "method": "as §2, §3"}, "[8]": {"test_system": "eNOS and AMPK phosphorylation", "test": "eNOS and AMPK phosphorylation in total aorta lysate of ApoE−/− mice", "details": "compared to Ang-II alone or control", "method": "Experiments were conducted in 2-month-old male apolipoprotein E knockout (ApoE^−/−) mice according to the guidelines formulated for care and use of animals in scientific research (ICMR, New Delhi, India) at a CPCSEA (Committee for the Purpose of Control and Supervision of Experiments on Animals) registered animal facility. […] Animals were randomly divided into 3 groups each n=7:1) control 2) Ang-II treatment and 3) Mito-Esculetin+Ang-II treatment. Ang-II and Mito-Esculetin treatment groups received Ang-II (sigma) at a dose of 1.44 mg/kg/day for 6 weeks through sub-cutaneous route where as control group received normal saline. Mito-Esculetin treatment group received the compound at a dose of 0.5 mg/kg/day in normal drinking water. […]\nAt the end of the treatments, HAECs were washed with ice-cold DPBS and resuspended in RIPA buffer (20 mM Tris-HCl, pH 7.4/2.5 mM EDTA/1% Triton X-100/1% sodium deoxycholate/1% SDS/100 mM NaCl/100 mM sodium fluoride) containing protease inhibitor cocktail and phosphatase inhibitor cocktail-2 and -3. […] Protein bands were detected by using HRP substrate (Millipore-luminata). […]\nTo further corroborate Mito-Esc's ability to protect from Ang-II-induced endothelial dysfunction during the progression of atheromatous plaque formation, we measured phospho-AMPK, AMPK, phospho-eNOS and eNOS protein levels in total aorta lysate."}, "[9]": {"details": "ApoE−/− mice, thoracic aorta sections"}, "[10]": {"details": "serum, ApoE−/− mice, 45 days, Ang-II alone or Ang-II + Mito-Esc"}}}
{"compound": "O=c1cc(CCCCCCCC[P+](c2ccccc2)(c2ccccc2)c2ccccc2)c2cc(O)c(O)cc2o1.[Br-]", "note": "[Mito-Esc]", "values": [{"measurement": "accumulation in the mitochondria compared to native esculetin", "setting": "HAEC", "value": "selectively accumulated in the mitochondria"}, {"measurement": "Cytosolic fraction", "setting": "HAEC; HAEC, 2.5 μM, 24 h", "value": "4488 ± 104", "unit": "nmol/mg protein"}, {"measurement": "Mitochondrial fraction", "setting": "HAEC; HAEC, 2.5 μM, 24 h", "value": "14523 ± 342", "unit": "nmol/mg protein"}, {"measurement": "Ang-II-induced H2O2 levels", "setting": "[1]", "value": "completely reversed H2O2 levels to control conditions"}, {"measurement": "H2O2 and Ang-II-induced caspase-3 and -8 activation", "setting": "[2]", "value": "markedly resistant"}, {"measurement": "concentration of maximum effect on phospho-AMPK1-α (Thr-172) levels", "setting": "[3]; 1-5 μM, 8 h", "value": 2.5, "unit": "µM"}, {"measurement": "phospho-AMPK1-α (Thr-172) levels", "setting": "[3]; 1-5 μM, 8 h", "value": "dose-dependent increase"}, {"measurement": "Ang-II-mediated inhibition of phospho-AMPK1-α", "setting": "[3]; Ang-II 500 nM, co-incubation", "value": "made cells resistant"}, {"measurement": "AMPK1-α phosphorylation in the presence of H2O2", "setting": "[3]; H2O2 500 μM, 2.5 μM, 8 h", "value": "greatly enhanced"}, {"measurement": "thick fibrous mature connective tissue around atheroma (Masson trichrome staining)", "setting": "[4]; ApoE−/− mice aorta", "value": "almost disappeared"}, {"measurement": "Ang-II-induced plaque extension, micro/pseudo aneurysm formation and maximal aortic diameters", "setting": "[4]; ApoE−/− mice, thoracic and abdominal aorta, six weeks, 0.5 mg/kg/day in drinking water", "value": "significant reduction"}, {"measurement": "Ang-II induced severe atherosclerotic lesions (H&E staining of aorta)", "setting": "[4]; [9]", "value": "complete protection"}, {"measurement": "luminal diameter compared to Ang-II alone", "setting": "[4]; [9]", "value": "significantly restored"}, {"measurement": "RNA and protein levels of PGC-1α, TFAM", "setting": "SIRT-3, PGC-1α, TFAM; 2.5 μM", "value": "significantly increased"}, {"measurement": "SIRT-3 levels", "setting": "SIRT-3, PGC-1α, TFAM; 1-5 μM", "value": "significantly increased"}, {"measurement": "Ang-II treatment induced inhibition of PGC-1A, TFAM and SIRT-3 levels", "setting": "SIRT-3, PGC-1α, TFAM; Ang-II 500 nM, 2.5 μM", "value": "significantly reversed"}, {"measurement": "Ang-II-induced proinflammatory cytokines (TNF-α, IFN-γ, MCP-1) production", "setting": "[5]; ApoE−/− mice serum", "value": "significant inhibition"}, {"measurement": "Mac-3 levels by flow cytometry", "setting": "[5]; ApoE−/− mice, by 30 days of treatment", "value": "inhibition of Mac3 levels"}, {"measurement": "endothelial cell aging (senescence-associated β-gal staining)", "setting": "HAEC aging / senescence; HAEC, 2.5 μM chronic treatment for six passages", "value": "greatly attenuated"}, {"measurement": "H2O2-induced premature senescence", "setting": "HAEC aging / senescence; P6 (young age) HAEC, H2O2", "value": "significantly inhibited"}, {"measurement": "H2O2-mediated mitochondrial membrane depolarization", "setting": "[6]", "value": "significantly rescued"}, {"measurement": "Ang-II mediated increase in LDL, VLDL, triglycerides and total cholesterol", "setting": "[7]; ApoE−/− mice serum", "value": "significantly reduced"}, {"measurement": "serum HDL levels", "setting": "[7]; ApoE−/− mice serum", "value": "significant rise"}, {"measurement": "HDL", "setting": "[7]; [10]", "value": "45.53 ± 0.4", "unit": "mg/dL"}, {"measurement": "LDL", "setting": "[7]; [10]", "value": "218.40 ± 20.9", "unit": "mg/dL"}, {"measurement": "Total Cholesterol", "setting": "[7]; [10]", "value": "414.85 ± 8.2", "unit": "mg/dL"}, {"measurement": "Triglycerides", "setting": "[7]; [10]", "value": "150.74 ± 3.8", "unit": "mg/dL"}, {"measurement": "VLDL", "setting": "[7]; [10]", "value": "30.15 ± 0.4", "unit": "mg/dL"}, {"measurement": "phosphorylation statuses of eNOS and AMPK in total aorta lysate", "setting": "[8]", "value": "significant increase"}]}
